Test results taken from patent US20250368625A1, “PIPERAZINES” (Grünenthal GmbH, priority 2024, published 2025).
pEC50: −log10 of the molar value.

biological target: T1, human SSTR4 (Homo sapiens, UniProt P31391); assay: hSSTR4 cAMP assay (cAMP accumulation, LANCE Ultra cAMP kit, CHO-K1 human SSTR4 Gi cell line); type: cell-based; conditions: functional agonism, forskolin 10 μM stimulated CHO-K1 human SSTR4 Gi cells, 30 min at 25° C., at least duplicate, averaged; read-out: hSSTR4 EC50
T1 construct: expressed in transfected cells; host or cells: CHO-K1
Method: cAMP accumulation assay using a CHO-K1 human SSTR4 Gi cell line.
Quantification of intracellular cAMP was performed using the LANCE Ultra cAMP assay kit from Revvity according to the manufacturer's instructions. CHO-K1 human SSTR4 Gi cell were either seeded in a density of 3K cells per well into a 384 well plate and incubated at 37° C. and 5% CO2 for 18-20 h or a stock of frozen cells were defrosted and seeded in a density of 5K cells per well without any further cultivation directly prior to the assay in a total volume of 5 μL in stimulation buffer. For pre-cultured cells, medium was replaced with 5 μL stimulation buffer before the assay. Cells were then stimulated with forskolin (final concentration 10 μM) and test compound (SSTR4 agonist) in increasing concentrations in duplicates for 30 min at 25° C. After stimulation, cells were lysed by addition of 10 μL of detection buffer (provided with the kit) and cell lysates were further diluted to ensure final cAMP concentrations fitted well into the dynamic range of the test kit. 10 μL of the diluted lysates were then added to respective wells of an OptiPlate-384 microplate. Thereafter, 5 μL of 4× Eu-cAMP tracer working solution was added, followed by addition of 5 μL of ULight-anti-cAMP working solution. The plate was then incubated for 1 h at 25° C. before reading on a TR-FRET microplate instrument. Data were normalized to cAMP high (forskolin only) and low control (forskolin+100 nM SST14) before fitting to a 4-Paramter logistic function.
All data was generated according to the cAMP assay conditions described above in at least duplicate and results are averaged and rounded to two significant figures.

T1 sequence (P31391 whole entry): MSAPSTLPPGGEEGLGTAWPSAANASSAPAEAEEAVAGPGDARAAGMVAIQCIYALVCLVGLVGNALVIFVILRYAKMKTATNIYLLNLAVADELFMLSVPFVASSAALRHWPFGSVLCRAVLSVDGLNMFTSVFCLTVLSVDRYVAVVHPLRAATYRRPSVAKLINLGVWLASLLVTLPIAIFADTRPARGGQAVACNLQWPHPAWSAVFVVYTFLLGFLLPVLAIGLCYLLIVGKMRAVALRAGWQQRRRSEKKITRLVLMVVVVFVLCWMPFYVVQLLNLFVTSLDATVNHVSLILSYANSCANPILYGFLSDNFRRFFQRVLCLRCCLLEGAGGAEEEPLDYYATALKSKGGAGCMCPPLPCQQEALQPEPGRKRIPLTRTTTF

Row | SMILES | pEC50
1 | Cc1cccn2c(C(C)(C)NC(=O)C3CNCCN3Cc3ncccn3)ncc12 (racemic) [SC-001, rac-N-(2-(8-methylimidazo[1,5-a]pyridin-3-yl)propan-2-yl)-1-(pyrimidin-2-ylmethyl)piperazine-2-carboxamide] | 7.89
2 | Cc1cccn2c(C(C)(C)NC(=O)[C@@H]3CNCCN3C(C)C)ncc12 (racemic) [SC-002, rac-1-isopropyl-N-(2-(8-methylimidazo[1,5-a]pyridin-3-yl)propan-2-yl)piperazine-2-carboxamide] | 8.96
3 | Cc1cccn2c(C(C)(C)NC(=O)C3CNCCN3Cc3ccccn3)ncc12 (racemic) [SC-003, rac-N-(2-(8-methylimidazo[1,5-a]pyridin-3-yl)propan-2-yl)-1-(pyridin-2-ylmethyl)piperazine-2-carboxamide] | 8.48
4 | Cc1cccn2c(C(C)(C)NC(=O)C3CNCCN3Cc3cccnn3)ncc12 (racemic) [SC-004, rac-N-(2-(8-methylimidazo[1,5-a]pyridin-3-yl)propan-2-yl)-1-(pyridazin-3-ylmethyl)piperazine-2-carboxamide] | 8.13
5 | Cc1cccn2c(C(C)(C)NC(=O)C3CNCCN3Cc3cncnc3)ncc12 (racemic) [SC-005, rac-N-(2-(8-methylimidazo[1,5-a]pyridin-3-yl)propan-2-yl)-1-(pyrimidin-5-ylmethyl)piperazine-2-carboxamide] | 8.64
6 | Cc1cccn2c(C(C)(C)NC(=O)C3CNCCN3Cc3ccn(C)n3)ncc12 (racemic) [SC-006, rac-1-((1-methyl-1H-pyrazol-3-yl)methyl)-N-(2-(8-methylimidazo[1,5-a]pyridin-3-yl)propan-2-yl)piperazine-2-carboxamide] | 8.43
7 | Cc1cccn2c(C(C)(C)NC(=O)[C@@H]3CNCCN3Cc3cnccn3)ncc12 (racemic) [SC-007, rac-N-(2-(8-methylimidazo[1,5-a]pyridin-3-yl)propan-2-yl)-1-(pyrazin-2-ylmethyl)piperazine-2-carboxamide] | 8.66
8 | Cc1cccn2c(C(C)(C)NC(=O)C3CNCCN3Cc3ccncn3)ncc12 (racemic) [SC-008, rac-N-(2-(8-methylimidazo[1,5-a]pyridin-3-yl)propan-2-yl)-1-(pyrimidin-4-ylmethyl)piperazine-2-carboxamide] | 8.54
9 | CC(=O)N1CCNCC1C(=O)NC(C)(C)c1ncc2c(C)cccn12 (racemic) [SC-009, rac-1-acetyl-N-(2-(8-methylimidazo[1,5-a]pyridin-3-yl)propan-2-yl)piperazine-2-carboxamide] | 5.47
10 | Cc1cccn2c(C(C)(C)NC(=O)C3CNCCN3C(=O)c3cnn(C)c3)ncc12 (racemic) [SC-010, rac-1-(1-methyl-1H-pyrazole-4-carbonyl)-N-(2-(8-methylimidazo[1,5-a]pyridin-3-yl)propan-2-yl)piperazine-2-carboxamide] | 5.46
11 | Cc1cccn2c(C(C)(C)NC(=O)[C@@H]3CNCCN3C(=O)C3CC(F)(F)C3)ncc12 (racemic) [SC-011, rac-1-(3,3-difluorocyclobutane-1-carbonyl)-N-(2-(8-methylimidazo[1,5-a]pyridin-3-yl)propan-2-yl)piperazine-2-carboxamide] | 5.89
12 | Cc1cccn2c(C(C)(C)NC(=O)C3CNCCN3C(=O)C3CC3)ncc12 (racemic) [SC-012, rac-1-(cyclopropanecarbonyl)-N-(2-(8-methylimidazo[1,5-a]pyridin-3-yl)propan-2-yl)piperazine-2-carboxamide] | 5.18
13 | Cc1cccn2c(C(C)(C)NC(=O)C3CNCCN3C(=O)C3COC3)ncc12 (racemic) [SC-013, rac-N-(2-(8-methylimidazo[1,5-a]pyridin-3-yl)propan-2-yl)-1-(oxetane-3-carbonyl)piperazine-2-carboxamide] | 6.46
14 | Cc1cccn2c(C(C)(C)NC(=O)C3CNCCN3CC3COC3)ncc12 (racemic) [SC-014, rac-N-(2-(8-methylimidazo[1,5-a]pyridin-3-yl)propan-2-yl)-1-(oxetan-3-ylmethyl)piperazine-2-carboxamide] | 8.51
15 | Cc1cccn2c(C(C)(C)NC(=O)C3CNCCN3c3ccccc3)ncc12 (racemic) [SC-093, rac-N-(2-(8-methylimidazo[1,5-a]pyridin-3-yl)propan-2-yl)-1-phenylpiperazine-2-carboxamide] | 9.07
16 | Cc1cccn2c(C(C)(C)NC(=O)[C@@H]3CNCCN3)ncc12 [SC-015, (S)-N-(2-(8-methylimidazo[1,5-a]pyridin-3-yl)propan-2-yl)piperazine-2-carboxamide] | 8.02
17 | Cc1cccn2c(C(C)(C)NC(=O)[C@@H]3CNCCN3CC(C)(C)F)ncc12 [SC-018, (S)-1-(2-fluoro-2-methylpropyl)-N-(2-(8-methylimidazo[1,5-a]pyridin-3-yl)propan-2-yl)piperazine-2-carboxamide] | 8.92
18 | Cc1cccn2c(C(C)(C)NC(=O)[C@@H]3CNCCN3CC(C)(F)F)ncc12 [SC-019, (S)-1-(2,2-difluoropropyl)-N-(2-(8-methylimidazo[1,5-a]pyridin-3-yl)propan-2-yl)piperazine-2-carboxamide] | 9.24
19 | Cc1cccn2c(C(C)(C)NC(=O)[C@@H]3CNCCN3C3CC(F)(F)C3)ncc12 [SC-021, (S)-1-(3,3-difluorocyclobutyl)-N-(2-(8-methylimidazo[1,5-a]pyridin-3-yl)propan-2-yl)piperazine-2-carboxamide] | 8.51
20 | Cc1cccn2c(C(C)(C)NC(=O)[C@@H]3CNCCN3CC(C)(C)O)ncc12 [SC-023, (S)-1-(2-hydroxy-2-methylpropyl)-N-(2-(8-methylimidazo[1,5-a]pyridin-3-yl)propan-2-yl)piperazine-2-carboxamide] | 8.05

Now from value to compound:

Row | pEC50 | SMILES
21 | 9.32 | Cc1cccn2c(C(C)(C)NC(=O)[C@@H]3CNCCN3Cc3ccc(C(F)(F)F)nc3)ncc12 [SC-030, (S)-N-(2-(8-methylimidazo[1,5-a]pyridin-3-yl)propan-2-yl)-1-((6-(trifluoromethyl)pyridin-3-yl)methyl)piperazine-2-carboxamide]
22 | 9.34 | Cc1cccn2c(C(C)(C)NC(=O)[C@@H]3CNCCN3CC3(C)CCC(F)(F)CC3)ncc12 [SC-024, (S)-1-((4,4-difluoro-1-methylcyclohexyl)methyl)-N-(2-(8-methylimidazo[1,5-a]pyridin-3-yl)propan-2-yl)piperazine-2-carboxamide]
23 | 9.36 | Cc1cccn2c(C(C)(C)NC(=O)[C@@H]3CNCCN3C)ncc12 [SC-016, (S)-1-methyl-N-(2-(8-methylimidazo[1,5-a]pyridin-3-yl)propan-2-yl)piperazine-2-carboxamide]
24 | 9.57 | Cc1cccn2c(C(C)(C)NC(=O)[C@@H]3CNCCN3CC3(C(F)(F)F)CC3)ncc12 [SC-020, (S)-N-(2-(8-methylimidazo[1,5-a]pyridin-3-yl)propan-2-yl)-1-((1-(trifluoromethyl)cyclopropyl)methyl)piperazine-2-carboxamide]
25 | 9.70 | Cc1cccn2c(C(C)(C)NC(=O)[C@@H]3CNCCN3CC(F)(F)F)ncc12 [SC-017, (S)-N-(2-(8-methylimidazo[1,5-a]pyridin-3-yl)propan-2-yl)-1-(2,2,2-trifluoroethyl)piperazine-2-carboxamide]
26 | 9.77 | Cc1cccn2c(C(C)(C)NC(=O)[C@@H]3CNCCN3Cc3ccc(C(F)(F)F)cc3)ncc12 [SC-028, (S)-N-(2-(8-methylimidazo[1,5-a]pyridin-3-yl)propan-2-yl)-1-(4-(trifluoromethyl)benzyl)piperazine-2-carboxamide]
27 | 9.92 | Cc1cccn2c(C(C)(C)NC(=O)[C@@H]3CNCCN3Cc3ccccc3F)ncc12 [SC-026, (S)-1-(2-fluorobenzyl)-N-(2-(8-methylimidazo[1,5-a]pyridin-3-yl)propan-2-yl)piperazine-2-carboxamide]
28 | 9.96 | Cc1cccn2c(C(C)(C)NC(=O)[C@@H]3CNCCN3Cc3cccc(F)c3)ncc12 [SC-029, (S)-1-(3-fluorobenzyl)-N-(2-(8-methylimidazo[1,5-a]pyridin-3-yl)propan-2-yl)piperazine-2-carboxamide]
29 | 10.05 | Cc1cccn2c(C(C)(C)NC(=O)[C@@H]3CNCCN3Cc3ccnc(C4CC4)c3)ncc12 [SC-022, (S)-1-((2-cyclopropylpyridin-4-yl)methyl)-N-(2-(8-methylimidazo[1,5-a]pyridin-3-yl)propan-2-yl)piperazine-2-carboxamide]
30 | 10.10 | Cc1cccn2c(C(C)(C)NC(=O)[C@@H]3CNCCN3Cc3ccc(F)cc3)ncc12 [SC-027, (S)-1-(4-fluorobenzyl)-N-(2-(8-methylimidazo[1,5-a]pyridin-3-yl)propan-2-yl)piperazine-2-carboxamide]
31 | 10.30 | Cc1cccn2c(C(C)(C)NC(=O)[C@@H]3CNCCN3Cc3cccc(C(F)(F)F)c3)ncc12 [SC-025, (S)-N-(2-(8-methylimidazo[1,5-a]pyridin-3-yl)propan-2-yl)-1-(3-(trifluoromethyl)benzyl)piperazine-2-carboxamide]

same assay, conditions: morpholinyl matched molecular pairs (from WO 2016 075240); same cAMP assay conditions; read-out: hSSTR4 EC50 nM (Comparative Example)

Row | EC50 | SMILES
32 | > 10000 nM | CC(C)(NC(=O)[C@@H]1CNCCO1)c1nnc2c(Cl)cccn12
